This is an account of results in US20060166934A1, “Composition comprising phytosphingosine derivatives for apoptosis induction” (Tae-Yoon Kim, priority 2002, published 2006).

Series [1] relates to human keratinocyte cell line HaCaT cells. Kind of series: MTT assay, cytotoxicity in human keratinocyte cell line. The class given is cell-based. The conditions noted are these: for Cell viability: 24 hours, con = 100, in %. As for the experimental part:
Firstly, the cytotoxicity is measured by the MTT assay. Phytosphingosine (PS), phytosphingosine-HCl (PS-HCl), C6-phytosphingosine (C6-PS), CLA-phytosphingosine (CLA-PS), tetraacetyl phytosphingosine (TAPS), and N-acetyl phytosphingosine (NAPS) are dissolved into DMSO to have the final concentration of 1-100 μM.
In order to study the effects of the compositions of the present invention on the cytotoxicity in the human keratinocyte cell line HaCaT cells, the cell viability is analyzed by the MTT (3-[4,5-dimethylthiazol-2-yl]-2,5-diphenyltetrazolium bromide) assay. HaCaT cells are supplied by Professor N. Fuseng of German Cancer Research in Germany. HaCaT cells are seeded in a density of 1×10^6 cells in a […] and cultured in DMEM (Dulbecco's Modified Eagle Medium) containing 10% fetal bovine serum (FBS, GIBCO), 100 units/ml penicillin, and 100 μg/ml streptomycin for 48 hours. They are treated with trypsin and 1-2×10^4 cells per well are seeded again in a 96-well plate by using a serum-free culture medium, about 3 hours after which they are cultured by treatment with phytosphingosine derivatives. After they are cultured for 24 hours, the MTT reagent is added at a concentration of 2 mg/ml, cultured for 4 hours, suspended in DMSO after removing the culture medium completely in order to measure O.D. at 540 nm. C2-ceramide is used for comparison.
A general note: Tetrazolium dyes change colour on reduction, which living cells bring about.

For series [2], the system named is Th1 cells activation. Kind of series: Mixed leukocyte reaction (MLR), Th1 cells activation by TNBSO3, MTT assay. The format is cell-based, mice. The settings on record: MLR with TNBSO3-conjugated stimulator cells, FIG. 4. On the procedure: Whether the composition of the present invention has a suppressive effect on the Th1 cells activation which isolate […], IL-12, etc. by reacting with TNBSO3 […] was examined.
The mononuclear cells obtained from spleen of mice as described the above 4 were used for responder cells, and TNBSO3-conjugated cells were used for stimulator cells. The stimulator cells were obtained as follows:
The mononuclear cells were adjusted to be 2×10^7 cells/ml in PBS and the same volume of 20 mM TNBSO3 was added and incubated at 37° C. for 10 min in the dark state. After incubation, the cells wrer washed three times with PBS.
(§1) Each 2×10^5 responder cells and stimulator cells were mixed with each other and cultured for 5 days on the 96-well plate. And RPMI with 10% of serum was used as a medium.
(§2) The above cells were cultured for 24 hours in the presence of 1, 10, 50 and 100 μM of NAPS, TAPS, and PS to examine the proliferation of the cells.
(§3) C2-ceramide was used as control.

Series [3] concerns Th1 cells activation against allogenic cells (PBMC). As to the kind of experiment: Reactions among allogenic cells, Th1 cells activation, MTT assay. The format is cell-based, human. The conditions noted are these: FIG. 5.
Excerpt: Whether the composition of the present invention has a suppressive effect on the Th1 cells activation by allogenic cells in immune reation was examined.
PBMC obtained from different volunteers as described in the above 5 were used for responder cells and stimulator cells respectively. PBMC for stimulator cells were used after X-ray irradiation (3000 rad) to inhibit the proliferation of stimulator cells.
as §1, §2, §3

Series [4] concerns HaCaT cells. As to the kind of experiment: TUNEL assay, induction of apoptosis. The settings on record: for cell death (TUNEL): 10 μM and 30 μM, 24 hours, FIG. 6; for time after treating at which apoptosis is induced: 30 μM, FIG. 7. The format is cell-based, human. As for the experimental part:
Induction of apoptosis of HaCaT cells by the compositions of the present invention is observed in the TUNEL-TdT-mediated dUTP nick end labeling-assay by using in situ cell death detection kit, POD (Enzo, 1684817, Boeringer Mannhein).
In the TC chamber (Lab-TEK chamber Slide w/cover Permanox Slide sterile 1 well, 177410), 1×10^6 HaCaT cells are seeded and cultured on the DMEM medium for longer than 18 hours and treated with phytosphingosine derivatives. The cells are fixed 24 hours after treating with drugs, and the endogenous peroxidase is blocked with a blocking solution (3% H2O2 in MeOH), and permeation of cells is increased by using a permeabilization solution (0.1% Triton X-100 in 0.1% sodium citrate). Then apoptotic cells are labeled by using the mixture of tunnel reaction and are colored by using the DAB substrate (DAKO, K3465). Colored cells are observed by using a microscope.

The test system of series [5] is HaCaT cells. As to the kind of experiment: MTT assay, combined treatment with UVB irradiation. The format is cell-based, human. The arrangement: Cell viability: unit not given here. The conditions noted are these: for cytotoxicity: 10 μM only; for Cell viability: HaCaT. As for the experimental part:
In order to study the synergistic effect in the cytotoxicity by the cotreatment with administration of the compositions of the present invention and with UVB irradiation, the cell viability is analyzed by MTT assay method in HaCaT cells. On a 100-mm dish, 1×10^6 HaCaT cells are seeded and cultured in DMEM containing 10% fetal bovine serum, 100 units/ml penicillin, and 100 μg/ml streptomycin for 48 hours. They are treated with trypsin, and 1-2×10^4 cells per well are seeded on a 96-well plate again by using a serum-free medium, which is removed after about 3 hours. HaCaT cells are washed with PBS three times, and 3.5 ml of PBS per plate is added. It is then irradiated with 200 J/m^2 of UVB. After irradiation, the medium is replaced with a DMEM medium. Then it is treated with the phytosphingosine derivatives of the present invention, and cultured for 24 hours. After 2 mg/ml of the MTT reagent is added, it is cultured for 4 hours. The medium is removed completely, the cells are suspended in DMSO, and O.D. is measured at 540 nm.

In series [6] the test system is caspase-3. As to the kind of experiment: Immunoblot analysis of active caspase-3. The conditions noted are these: HaCaT, FIG. 11; for time to maximum active caspase-3: after treatment; for maximum increase of active caspase-3 (expression of induction): immunoblot. The format is cell-based, human. As for the experimental part:
In the confirmation of apoptosis-related proteins, the immunoblot analysis is performed in order to look into the effects of the compositions of the present invention on the expression of caspase-3, p53, and Chk1 proteins related to the induction of apoptosis.
HaCaT cells are cultured on a 100-mm dish and collected at the indicative time. The proteins are extracted by adding 500 μl of RIPA lysis buffer (1% Nonidet P-40, 1% sodium deoxycholate, 0.1% SDS, […], 0.01 M sodium phosphate, pH 7.2, 2 mM EDTA, 50 mM sodium fluoride and 0.2 mM sodium vanadate), and the concentration is measured by using the Bradford method. 1
Extracted proteins is electrophoresed on 12% polyacrylamide gel, and they are transferred to the nitrocellulose membrane. The membrane blocked with 5% non-fat milk is reacted with the primary antibodies (caspase-3, p53, and Chk1), washed, and reacted with the secondary HRP-conjugated antibody. The intensity of proteins is analyzed by using the ECL kit.
In general terms: A western blot detects proteins with antibodies after separation by electrophoresis.

Molecule `CCCCCCCCCCCCCC[C@@H](O)[C@@H](O)[C@H](CO)NC(C)=O` [NAPS, N-acetyl phytosphingosine] had a cytotoxicity in series [1] (human, 24 h, 30 μM) of 83%. Further, the “concentration showing a suppressive effect on Th1 cells activation” value in series [2] came out at 50 µM. The “concentration showing a suppressive effect on Th1 cells activation against allogenic cells” value in series [3] is 50 μM. Moreover, in series [4], the “cell death (TUNEL)” value is “most significant effect of cell death” and the “time after treating at which apoptosis is induced” value came out at 4 h. Moreover, the cytotoxicity in series [5] (no UVB) is on record as 33%. For the same molecule, in series [6], the “time after treatment at which cleavage to active caspase-3 is increased significantly” value stood at 30 min, the “time for which increased active caspase-3 is maintained” value was determined as 12 h, the “time to maximum active caspase-3” value is ≤ 3 h and the “maximum increase of active caspase-3 (expression of induction)” value is 6 folds.

As for tetraacetyl phytosphingosine [TAPS], the Cell viability in series [1] (1 μM, HaCaT) is listed as 94 ± 0.1; in series [1] (3 μM, HaCaT), 93 ± 2.9; in series [1] (10 μM, HaCaT), 76 ± 1.4; in series [1] (30 μM, HaCaT), 17 ± 1.1; in series [5] (1 μM + UVB 200 J/m^2, 24 hours) it was 27 ± 7.1; in series [5] (1 μM, no UVB, 24 hours), 111 ± 7.0. In addition, the Cell viability in series [5] (3 μM + UVB 200 J/m^2, 24 hours) is reported as 27 ± 3.9; in series [5] (3 μM, no UVB, 24 hours), 97 ± 10.0; in series [5] (5 μM + UVB 200 J/m^2, 24 hours), 16 ± 3.2; in series [5] (5 μM, no UVB, 24 hours), 83 ± 8.0; in series [5] (10 μM + UVB 200 J/m^2, 24 hours) it was 2 ± 0.1; in series [5] (10 μM, no UVB, 24 hours), 43 ± 4.0. Besides, the cytotoxicity in series [1] (30 μM, HaCaT) is recorded as 83%; in series [5] (no UVB), 57%. For the same molecule, the “concentration showing a suppressive effect on Th1 cells activation” value in series [2] stood at 10 µM. The “suppressive effect on Th1 cells activation against allogenic cells” value in series [3] (50 μM) was “suppress completely”. Moreover, in series [3], the “concentration showing a suppressive effect on Th1 cells activation against allogenic cells” value worked out at 50 μM. The “cell death (TUNEL)” value in series [4] is given as “most significant effect of cell death”. Further, the “time after treating at which apoptosis is induced” value in series [4] is 4 h. Further, in series [6], the “time for which increased active caspase-3 is maintained” value was found to be 24 h. The “time to maximum active caspase-3” value in series [6] was ≤ 3 h. The “maximum increase of active caspase-3 (expression of induction)” value in series [6] came out at 5 folds.
